Laboratory results as given in patent publication US20260365672A1, “K-RAS MUTANT PROTEIN INHIBITORS” (Jacobio Pharmaceuticals Co., Ltd., priority 2022, published 2026).

Target: T1, GDP-KRAS G12V (Homo sapiens, UniProt P01116, G12V)
T1 construct: GDP-loaded HIS-KRAS(G12V, aa 1-169)
Experiment: SOS1 catalyzed nucleotide exchange assay (TR-FRET)
Format: biochemical
Conditions: GDP-loaded HIS-KRAS(G12V, aa 1-169) 10-15 nM; 0.5 μM SOS1 ExD; 80 nM BODIPY FL GTP; 15 min pre-incubation, 4 hours at 25 °C
Protocol: GDP-loaded HIS-KRAS(G12V, aa 1-169) was pre-incubated with a compound in the presence of 10 nM GDP in a 384-well plate (Greiner) for 15 min, then purified SOS1 ExD (Flag tag, aa 564-1049), BODIPY™ FL GTP (Invitrogen) and MAb (monoclonal antibody) Anti 6HIS-Tb cryptate Gold (Cisbio) were added to the assay wells (Final concentration: 10-15 nM GDP-loaded HIS-KRAS(G12V), 5 nM GDP, 0.5 μM SOS1 ExD, 80 nM BODIPY™ FL GTP, 52.5 ng/mL MAb Anti 6HIS-Tb cryptate Gold) and incubated for 4 hours at 25 °C. Wells containing same percent of DMSO served as vehicle control, and wells without KRAS served as low control. TR-FRET signals were read on Tecan Spark multimode microplate reader. The parameters were F486: Excitation 340 nm, Emission 486 nm, Lag time 100 μs, Integration time 200 μs; F520: Excitation 340 nm, Emission 520 nm, Lag time 100 μs, Integration time 200 μs. TR-FRET ratios for each individual wells were calculated by equation: TR-FRET ratio=(Signal F520/Signal F486)*10000. The percent of activation of compounds treated wells were normalized between vehicle control and low control (% Activation=(TR-FRET ratioCompound treated−TR-FRET ratioLow control)/(TR-FRET ratioVehicle control−TR-FRET ratioLow control)*100%). Then the data were analyzed either by fitting a 4-parameter logistic model or by Excel to calculate IC50 values.

T1 sequence (P01116 1-169 isoform P01116-2 G12V): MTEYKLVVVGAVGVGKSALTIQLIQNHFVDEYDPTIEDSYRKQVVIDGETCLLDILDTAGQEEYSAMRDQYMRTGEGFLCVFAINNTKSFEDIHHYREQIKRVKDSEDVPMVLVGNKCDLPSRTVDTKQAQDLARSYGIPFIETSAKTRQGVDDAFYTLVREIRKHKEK

Row | SMILES | IC50
1 | C#Cc1c(F)ccc2cc(O)cc(-c3nc4c5c(nc(OC[C@@]67CCCN6C[C@H](F)C7)nc5c3F)N(C)C3CC3N4C)c12 (mixture of isomers) [Compound 2] | 26.4 nM
2 | C#Cc1c(F)ccc2cc(O)cc(-c3nc4c5c(nc(OC[C@@]67CCCN6C[C@H](F)C7)nc5c3F)N(C)C3COCC3N4C)c12 (mixture of isomers) [Compound 3] | 0.757 nM
3 | C#Cc1c(F)ccc2cc(O)cc(-c3nc4c5c(nc(OCC67CCCN6CC(F)C7)nc5c3F)N(C)C3CCCC3N4C)c12 (centres unmarked) [Compound 1] | 4.38 nM
4 | C#Cc1c(F)ccc2cc(O)cc(-c3nc4c5c(nc(OC[C@@]67CCCN6C[C@H](F)C7)nc5c3F)N(C)[C@H]3COC[C@H]3N4)c12 [Compound 4] | 1.35 nM
5 | C#Cc1c(F)ccc2cc(N)cc(-c3nc4c5c(nc(OCC67CCCN6CC(F)C7)nc5c3F)N(C)C3COCC3N4C)c12 (centres unmarked) [Compound 5] | 5.58 nM
